Tests used:
[1] = test system: mouse colorectal cancer cell line CT26; assay: Subcutaneously transplanted CT26 tumor growth inhibition; type: in vivo, BALB/c ordinary mice; details: CT26 in BALB/c mice; 10 mg/kg intraperitoneal once every 2 days for 20 days
Text: Experimental animals: BALB/c ordinary mice and C57BL/6 ordinary mice, male, weighing 20-22 grams, 7-8 weeks old, purchased from Shanghai SLAC Laboratory Animal Co. Ltd.
Tumour cell line: mouse colorectal cancer cell line CT26 and mouse breast cancer cell line 4T1, both purchased from Chinese Academy of Sciences Cell Bank.
Establishment and intervention of tumor model mice: cells were subjected to culture and subculture, collected in a logarithmic phase and prepared as 1.0×10^7/mL of cell suspension. 0.2 mL of the cell suspension was injected armpits of forelegs of the mice (with a cell number of 2.0×10^6), and tumor transplantation was successful in about 7 days. Mice with successful tumor transplantation were randomly divided into 7 groups (10 mice in each group). The 7 groups were listed as follows: A: negative control group (injection with normal saline); B: positive control cGAMP group (10 mg/kg of injection); C: [Li2(cGAMP)] group (10 mg/kg of injection); D: [Mg(cGAMP)] group (10 mg/kg of injection); E: [Zn(cGAMP)] group (10 mg/kg of injection); F: [Mn(cGAMP)] group (10 mg/kg of injection); and G: [Fe(cGAMP)] group (10 mg/kg of injection). The mice with successful tumor transplantation were subjected to administration by intraperitoneal injection with a volume of 200 μL per mice once every 2 days for 20 days. After 20 days, the mice with successful tumor transplantation were killed, and the tumor were weighed. A formula of inhibitory rate of tumor was as represented as inhibitory rate of tumor=[1−average tumor weight of experimental group/average tumor weight of the negative control group]×100%.
According to the establishment of tumor model mice, the mouse colorectal cancer cell line CT26 was cultured and transplanted to the BALB/c ordinary mice, and the mouse breast cancer cell line 4T1 was cultured and transplanted to the BALB/c ordinary mice.
Statistical analysis: data was expressed as mean±standard deviation and processed by the SPSS10.0 software. One-way ANOVA was used to detect and compare significance of tumor weights in each group.

IRI mice (male SD mice) = assay: Cerebral ischemia-reperfusion injury (IRI) model, TTC dyeing; type: in vivo; details: 2 h ischemia, 24 h reperfusion; caudal vein injection 5 mg/kg (Edaravone 6 mg/kg) after 30 min ischemia
Method: Experimental animals: healthy male mice, weighing 280-300 grams, purchased from Shanghai SLAC Laboratory Animal Co. Ltd, with quality certificate No. (SCXK (Shanghai) 2007-0005), and kept in clean animal houses.
Establishment of a mouse cerebral ischemia model of mice and experimental method: 280-300 grams of male […] mice were selected for experiments. The male SD mice were subjected to fasting without water deprivation for 12 h before operation followed by weighing, numbering and random grouping. The male SD mice were anesthetized by intraperitoneal injection of 10 wt. % chloral hydrate at a dosage of 0.3 mL/100 g. After the male SD mice had no pain reflexes, they were subjected to neck skin preparation followed by being fixed on a dissecting table in supine position. After neck skins were disinfected with sterilized cotton balls, about 1 cm of the neck skins were cut in mid-cervical to expose subcutaneous tissues, and subcutaneous fat and the fascia were bluntly plucked with curved tweezers to expose neck muscle groups. The common carotid arteries and their upwardly internal and external carotid branches were visualized by opening the digastric muscle. The external, internal, and common carotid arteries were carefully dissected, and a thin wire was threaded under each of the three arteries, and homemade plastic spacers were placed under the common carotid arteries. The external carotid arteries and proximal ends of the common carotid arteries were ligated. After the internal common carotid arteries were clamped by arterial clips, the common carotid arteries were stuck into with homemade curved hooks followed by picking up and leading in monofilaments. The spacers were removed, and the monofilaments were gently pushed into the internal common carotid arteries and craniums. […] At this time, blood supplies of the middle cerebral arteries from the anterior cerebral arteries were blocked. Thin wires under the internal carotid arteries were ligated to secure the monofilaments to prevent the monofilaments from retreating. Excess thin wires were cut, penicillin was applied to wounds to prevent infection. The male SD mice were sutured and placed under a warm lamp to keep warm. Timing was performed when blood flows of the middle cerebral arteries were blocked by the monofilaments. After 2 hours, the monofilaments were gently pulled out and the black marks were seen, then reperfusion can be achieved.
Triphenyl tetrazolium chloride (TTC) dyeing: After being injured by 2 h cerebral ischemia and 24 h reperfusion, the male SD mice were anesthetized with 0.3 mL/100 g dosage of 10 wt. % of chloral hydrate by intraperitoneal injection and subjected to abdominal aorta bleeding to reduce influence of blood in brains. Then whole heads of the male SD mice were removed immediately after decapitating, and washed with normal saline followed by being promptly put into a −20° C. refrigerator to freeze for 20 min. Frozen brains were collected and subjected to coronal sections, each 2 mm of thickness, by a blade. Then the coronal sections were subjected to dark dyeing in a 2 wt. % of TTC solution for 20 min and fixing in a 4 wt. % of polyformaldehyde solution for 6 h followed by photographing. Then, Photoshop software was used to define area and calculate, and a formula was represented as a percentage of cerebral ischemic area=a total area of white area/a total area of ischemic hemisphere×100%.
Drug preparation and experimental grouping: Edaravone was used as a positive control drug, and an Edaravone injection was 30 mg/20 mL. A single dosage for each of the male SD mice was 0.4 mL/100 g, that is, 6 mg/kg. The cyclic dinucleotide metal compounds prepared in Examples 1-5 were prepared into […] injection drugs with the normal saline. Each of the male SD mice was subjected to caudal vein injection with 0.4 mL/100 g dosage of drugs, that is, 5 mg/kg. The male SD mice were divided into 8 groups (10 mice in each group). […]

Nc1nc2c(ncn2[C@@H]2O[C@@H]3COP(=O)([O-])O[C@H]4[C@@H](O)[C@H](n5cnc6c(N)ncnc65)O[C@@H]4COP(=O)([O-])O[C@@H]2[C@@H]3O)c(=O)[nH]1.[Zn+2] [[Zn(cGAMP)], zinc cyclic dinucleotide]
Average inhibitory rate of the tumor [1]: 88.9%
Average tumor weight [1]: 0.201 ± 0.123 g
Average value of percentage of cerebral ischemic area (IRI mice (male SD mice)): 23.52%

Nc1nc2c(ncn2C2OC3COP(=O)([O-])OC4C(COP(=O)([O-])OC2C3O)OC(n2cnc3c(N)ncnc32)C4O)c(=O)[nH]1.[Fe+2] (stereo not drawn) [[Fe(cGAMP)], ferrous cyclic dinucleotide]
Average inhibitory rate of the tumor [1]: 83.5%
Average tumor weight [1]: 0.301 ± 0.112 g
Average value of percentage of cerebral ischemic area (IRI mice (male SD mice)): 26.78%

Nc1nc2c(ncn2[C@@H]2O[C@@H]3COP(=O)([O-])O[C@H]4[C@@H](O)[C@H](n5cnc6c(N)ncnc65)O[C@@H]4COP(=O)([O-])O[C@@H]2[C@@H]3O)c(=O)[nH]1.[Li+].[Li+] [[Li2(cGAMP)], lithium cyclic dinucleotide]
Average inhibitory rate of the tumor [1]: 63.0%
Average tumor weight [1]: 0.675 ± 0.163 g
Average value of percentage of cerebral ischemic area (IRI mice (male SD mice)): 25.25%

Nc1nc2c(ncn2[C@@H]2O[C@@H]3COP(=O)(O)O[C@H]4[C@@H](O)[C@H](n5cnc6c(N)ncnc65)O[C@@H]4COP(=O)(O)O[C@@H]2[C@@H]3O)c(=O)[nH]1 [cGAMP, 2′3′-cGAMP, reference compound]
Average inhibitory rate of the tumor [1]: 61.0%
Average tumor weight [1]: 0.712 ± 0.145 g
Average value of percentage of cerebral ischemic area (IRI mice (male SD mice)): 26.86%

Nc1nc2c(ncn2[C@@H]2O[C@@H]3COP(=O)([O-])O[C@H]4[C@@H](O)[C@H](n5cnc6c(N)ncnc65)O[C@@H]4COP(=O)([O-])O[C@@H]2[C@@H]3O)c(=O)[nH]1.[Mg+2] [[Mg(cGAMP)], magnesium cyclic dinucleotide]
Average inhibitory rate of the tumor [1]: 65.2%
Average tumor weight [1]: 0.635 ± 0.178 g
Average value of percentage of cerebral ischemic area (IRI mice (male SD mice)): 18.16%

Nc1nc2c(ncn2C2OC3COP(=O)([O-])OC4C(COP(=O)([O-])OC2C3O)OC(n2cnc3c(N)ncnc32)C4O)c(=O)[nH]1.[Mn+2] (stereo not drawn) [[Mn(cGAMP)], manganese cyclic dinucleotide]
Average inhibitory rate of the tumor [1]: 85.8%
Average tumor weight [1]: 0.258 ± 0.105 g
Average value of percentage of cerebral ischemic area (IRI mice (male SD mice)): 25.56%

— patent US20240317792A1, “CYCLIC DINUCLEOTIDE METAL COMPOUND, AND PREPARATION AND APPLICATION THEREOF” (HANGZHOU XINGAO BIOTECHNOLOGY CO., LTD., priority 2022, published 2024)
